Experimental data as given in patent publication US20230172940A1, “METHODS OF EXTENDING LIFESPAN BY ADMINISTERING FERROPTOSIS INHIBITORS” (COLLABORATIVE MEDICINAL DEVELOPMENT, LLC, priority 2020, published 2023).

Columns and labels:
OP50 E. coli = test: Bacterial growth assay (OD600); assay type: cell-based, Escherichia coli; conditions: 50 or 100 μg/mL; after 12 hours, 37° C
Procedure: The effects of test compounds on growth of the OP50 E. coli feed was assayed using optical density at 600 nm (OD600). Using standard microtitre plates, replicate wells of 200 μL of sterile Luria broth were inoculated with 2 μL of an overnight OP50 culture in addition to the stated final concentrations of ampicillin (Amp), Lip-1 and SIH. OD600 measures were taken after 12 hours in an EnSpire (PerkinElmer) spectrophotometric plate reader preset to 37° C., with 30 sec of 200 rpm orbital shaking every 10 minutes.
Data was averaged across duplicate experiments, each with eight replicate wells per treatment where a baseline of Luria broth without an inoculate was subtracted.

C. elegans = conditions: iron chelators, literature reports; cited from earlier work

## CC1(C)S[C@@H]2[C@H](NC(=O)[C@H](N)c3ccccc3)C(=O)N2[C@H]1C(=O)O [ampicillin]
OP50 E. coli
  growth of OP50 E. coli (OD600): completely suppressed bacterial growth

## Cc1c(O)c(=O)ccn1C [deferiprone]
C. elegans
  effect on C. elegans lifespan as reported: not to impact C. elegans lifespan

## O=C(O)CN(CCN(CC(=O)O)CC(=O)O)CC(=O)O.[Ca] [CaEDTA, calcium-ethylenediaminetetraacetic acid]
C. elegans
  effect on C. elegans lifespan as reported: minor (undisclosed) increase in lifespan
